Like-named read-outs stand apart in the source and are kept apart here.
What was measured:
[1] = biological target: T1, UCHL1 (Homo sapiens, UniProt P09936); experiment: Gel-based competition assay with probe 8RK59, UCHL1 band; type: biochemical; settings: compound 2 μM, 1 h; PARK7 and UCHL1 1 μM each; then 8RK59 2 μM 30 min; Figure 3B
T1 sequence (P09936 1-223): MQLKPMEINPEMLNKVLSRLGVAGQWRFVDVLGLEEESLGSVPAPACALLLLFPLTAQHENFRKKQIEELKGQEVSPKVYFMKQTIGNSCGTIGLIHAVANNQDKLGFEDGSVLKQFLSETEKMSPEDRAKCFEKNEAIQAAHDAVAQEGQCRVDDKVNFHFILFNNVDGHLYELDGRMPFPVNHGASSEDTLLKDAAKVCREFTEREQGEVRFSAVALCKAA
Description: To assess the inhibitory potency and selectivity of these compounds toward PARK7 and UCHL1, we performed a gel-based competition assay (Figure 3A).[36] A mixture of equal amounts of PARK7 and UCHL1 (1 μM) was treated with each of the synthesized compounds (2 μM) for 1 h, followed by incubation with fluorescent probe 8RK59 (2 μM) for 30 min. Samples were resolved by SDS-PAGE, and the gel was scanned for fluorescence. Inhibition of PARK7 or UCHL1 is reflected by the disappearance of their corresponding bands (Figure 3B). […] The inhibition potential of JYQ-88 against PARK7 was assessed in a similar assay where PARK7 was incubated with a serial dilution of JYQ-88 before treatment with probe 8RK59 (Figure 3C). A clear inhibition is visible at 0.5 μM, and full inhibition is achieved between 1 and 2 μM. […] The selectivity of JYQ-88 between UCHL1 and PARK7 was further confirmed in a direct competition assay between equal amounts of PARK7 and UCHL1 (Figure 3F). PARK7 inhibition was observed starting from 0.5 μM JYQ-88, whereas inhibition of UCHL1 was only detected at 20 μM. Since JYQ-88 and 8RK64 are enantiomers, we assumed that the interactions with PARK7 should be similar. To investigate how the chiral center influences the selectivity, we solved the crystal structure of the PARK7−JYQ-88 complex with 1.42 Å resolution (Figure 3G, Table S1, PDB 7PA3). The global positioning of the inhibitor in between the two α-helices was similar to that for 8RK64. […] This way, the thiazolo-pyridine part of JYQ-88 is bound in a similar manner as 8RK64 and the earlier observed interactions are largely the same. The formation of the isothiourea moiety, stabilized by the interaction with Glu18, and the interaction between the thiazole amine and the amide NH2 of the Asn76 side chain are still present. However, the interaction between the azidoacetyl carbonyl with the Leu128 backbone carbonyl can no longer be observed due to the rotation of the azidoacetyl moiety. The Lys132 residue also seems to have rotated (compared to Figure 2C).
The assay was performed in Tris buffer as described above.

[2] = biological target: T1, UCHL1; experiment: UCHL1 activity assay (Ub-Rho-Morpholine or Ub-AMC substrate); type: biochemical; settings: UCHL1 1 nM, 1 h preincubation
Description: The assay was performed in a buffer containing 50 mM Tris·HCl, 100 mM NaCl at pH 7.5, 2.0 mM cysteine, 1 mg/mL 3-[(3-cholamidopropyl)dimethylammonio]propanesulfonic acid (CHAPS), and 0.5 mg/mL bovine serum albumin and conducted in a 384-well plate (Corning 3820) with a reaction volume 20 μL in triplicate. The compounds were dissolved in DMSO as 10, 1, and 0.1 mM stock solutions and were transferred to obtain a 12-point serial dilution of 0.05 to 200 μM. Next, UCHL1 (15 μL, final concentration of 1 nM) was dispensed with a Biotek MultiFlowFX liquid dispenser and incubated for 1 h, followed by dispensing the substrate Ub-Rho-Morpholine or Ub-AMC (5 μL, final concentration of 400 nM). The FI signal was monitored with a BMG Labtech PHERAstar plate reader (λex/em 487/535 nm or λex/em 350/450 nm) for 1 h. N-Ethylmaleimide (NEM, 10 mM) was used as a positive control (100% inhibition), and DMSO was used as a negative control (0% inhibition). All samples were normalized to the positive and negative controls and plotted against the inhibitor concentrations (in μM) using the built-in equation “[inhibitor] vs response – variable slope (four parameters), least-squares fit” with constraints “Bottom = 0” and “Top = 100” in GraphPad Prism 9.0.1 software to obtain the IC50 values.

[3] = tested on: DUBs; experiment: DUB activity profiling in HEK293T cell lysate with general DUB probe Rho-Ub-PA; type: biochemical; settings: compound 5 μM 1 h 37 °C, then Rho-Ub-PA 30 min, Figure S5
Description: Due to the structural similarity of PARK7 inhibitor JYQ-88 and UCHL1 inhibitor 8RK64 and the fact that many cyanimide-containing compounds have been identified as DUB inhibitors,[35],[37] we investigated the inhibitory potential of JYQ-88 and JYQ-92 toward DUBs. After treating the HEK293T cell lysate with JYQ-88 and JYQ-92, along with UCHL1 inhibitors, 6RK73 and 8RK64 as controls,[38] the remaining activity of DUBs was determined using the general DUB probe Rho-Ub-PA (Figure S5).[39]
Figure S5. Fluorescence labeling of DUBs to investigate their remaining activity by Rh-Ub-
PA after the treatment with PARK7 inhibitor JYQ-88 and probe JYQ-92. UCHL1 inhibitors,
6RK73 and 8RK64, were used as a control. HEK293T cell lysate was treated with 5 μM final
MOPS SDS running buffer (Novex, NuPAGE) and visualized by fluorescence scanning on a
Typhoon FLA 9500 (GE Healthcare Life Sciences) using a Rhodamine channel (λex/em
(1 picture or pasted object on this page, not shown here)

[4] = biological target: T1, UCHL1; experiment: JYQ-92 labeling in HEK293T cell lysate with UCHL1 knockdown; settings: HEK293T lysate with PARK7 or UCHL1 knockdown, probe 1 μM; Figure 4D
Description: (§1) We next investigated the ability of JYQ-92 to label PARK7 activity in HEK293T cell lysates by treating with the increasing concentration of JYQ-92 (0–5 μM) for 1 h. […] To study its specificity toward PARK7 compared to UCHL1 in more detail, HEK293T cell lysates where we knockdown PARK7 or UCHL1 were treated with 1 μM final concentration of JYQ-92.
(§2) The samples were kept on ice and sonicated using 10 cycles of 30 s pulse on and 30 s pulse off (Bioruptor, Diagenode). […] For the labeling experiments, the prepared cell lysate was incubated with an indicated concentration of JYQ-92 in each experiment for 1 h at 37 °C. The reactions were stopped by adding NuPAGE LDS sample buffer (4×).

[5] = biological target: T2, PARK7 (Homo sapiens, UniProt Q99497); experiment: Probe JYQ-92 labeling of endogenous PARK7 in HEK293T cell lysate; settings: 0–5 μM probe, 1 h, Figure 4C
T2 sequence (Q99497 1-189): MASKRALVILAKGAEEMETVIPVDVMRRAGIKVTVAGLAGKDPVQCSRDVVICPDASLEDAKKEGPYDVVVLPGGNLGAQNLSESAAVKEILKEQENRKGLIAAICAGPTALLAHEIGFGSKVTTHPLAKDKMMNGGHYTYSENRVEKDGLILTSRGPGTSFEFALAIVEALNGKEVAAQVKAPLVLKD
Description: as §1, §2

[6] = biological target: T2, PARK7; experiment: Probe labeling of purified recombinant PARK7 (SDS-PAGE, fluorescence scanning); type: binding; parameters: GST (N, cleaved yes); made in house; host or cells: E. coli BL21(DE3) Rosetta2
Excerpt: PARK7 inhibitor JYQ-88 was further converted into activity-based probes by installing SulfoCy5, Rhodamine110, or BodipyFL. We took advantage of the azide moiety in JYQ-88 and conjugated alkyne versions of these dyes using the copper(I)-catalyzed azide alkyne cycloaddition (CuAAC) to obtain compounds JYQ-92, JYQ-93, and JYQ-107 (Scheme 2). We next investigated the ability of the probes to label and visualize PARK7. […] The SulfoCy5 probe JYQ-92 and Rhodamine110 probe JYQ-107 labeled PARK7 already at 1 μM, while the BodipyFL probe JYQ-93 was less efficient than the other probes as PARK7 labeling was only observed from 5 μM.
All the labeling assays were performed in Tris buffer (50 mM Tris–HCl, 150 mM NaCl, 2 mM TCEP, pH 7.5). For labeling with the 8RK59 probe, 1 μM final concentrations of UCHL1 and PARK7 were individually or together incubated with 2 μM final concentrations of 8RK59 for 30 min at 37 °C, followed by protein visualization. For labeling with JYQ-92, JYQ-93, and JYQ-107, 1 μM final concentration of PARK7 was incubated with different concentrations (0, 0.1, 0.5, 1, 2, 5, and 10 μM) of the indicated probes for 1 h at 37 °C. […] These samples were resolved by SDS-PAGE using precast Bis-Tris gels (Invitrogen, NuPAGE) with MES SDS running buffer (Novex, NuPAGE).

[7] = tested on: PARK7 and UCHL1; experiment: Labeling of a mixture of purified recombinant UCHL1 and PARK7 with probe 8RK59 (SDS-PAGE, fluorescence scanning); type: binding; settings: UCHL1 and PARK7 1 μM each, probe 2 μM, 30 min 37 °C
Description: To determine the labeling efficiency of 8RK59 for both UCHL1 and PARK7, a mixture of equal amounts of purified recombinant UCHL1 and PARK7 (1 μM each) is labeled with 8RK59 (2 μM). […] To gain more insight into the inhibitor binding mode and to guide the design of novel PARK7 inhibitors, the crystal structure of the PARK7–8RK64 complex was solved with 1.21 Å resolution (Figure 2C, Table S1, PDB 7PA2). The structure is obtained as a monomer and compared to its apo structure (PDB 1J42). […] Globally, the inhibitor fits into a groove between two α-helices formed by residues 76–84 and 126–134 (Figure 2C, left panel). The covalent bond between 8RK64 and PARK7 is clearly visible (Figure 2C, middle panel). The cyanimide moiety of the inhibitor reacted to active site Cys106, thereby forming an isothiourea linkage, which is similar to what has been observed for the reaction of cyanamide-based and azanitrile inhibitors with cathepsins.[33],[34] The isothiourea moiety is stabilized by an H-bond between the NH and the carboxylate side chain of the nearby Glu18. Another interaction is found between the thiazole ring amine in the inhibitor and the amide NH2 of the Asn76 side chain. Hydrogen bonding between the carbonyl of the azidoacetyl moiety and the Leu128 backbone carbonyl via a water molecule is also observed. […]

Inhibition of UCHL1 (disappearance of 8RK59-labeled band) [1] | IC50 ([2]; Figure 3E, read-out: UCHL1 IC50) [µM] | IC50 ([2]; read-out: UbRhoMP assay UCHL1 IC50) [µM] | Binding to UCHL1 in the cell lysate [4] | Probe concentration at which a clear PARK7 band (20 kDa) was observed [5] [µM] | Binding to wild-type PARK7 ([6]; probe 2 μM, 1 h, Figure 4B) | Probe concentration from which PARK7 labeling was observed ([6]; purified PARK7 1 μM, 1 h 37 °C, Figure 4A) [µM] | Structure (SMILES) | Effect on remaining DUB activity (Rho-Ub-PA labeled bands) [3] | Labeling of PARK7 and UCHL1 by probe [7]
fully inhibit | 0.23 | – | – | – | – | – | N#CN1CC[C@H](C(=O)Nc2nc3c(s2)CN(C(=O)CN=[N+]=[N-])CC3)C1 [8RK64, reference compound] | disappearance of the UCHL1 band | –
– | – | 19.8 | not to UCHL1 | 0.5 | only binds to the active wild-type PARK7 | 1 | CC[N+]1=C(/C=C/C=C/C=C2/N(CCCCCC(=O)NCCCc3cn(CC(=O)N4CCc5nc(NC(=O)[C@@H]6CCN(C#N)C6)sc5C4)nn3)c3ccc(S(=O)(=O)O)cc3C2(C)C)C(C)(C)c2cc(S(=O)(=O)[O-])ccc21 [JYQ-92] | no influence on DUB activity | –
– | – | – | – | – | – | – | CC1=CC(C)=[N+]2C1=C(CCCCc1cn(CC(=O)N3CCc4nc(NC(=O)[C@H]5CCN(C#N)C5)sc4C3)nn1)c1c(C)cc(C)n1[B-]2(F)F [8RK59] | – | nearly equal extent

From publication PMC9574860, “Chemical Toolkit for PARK7: Potent, Selective, and High-Throughput” (Journal of Medicinal Chemistry, 2022)
